In ChEMBL document CHEMBL5674860, “Optimized Dual-Glo Assay to identify co-culture-induced drug vulnerabilities in 3D CRC models” (2024):

Assays:
Format in all cases: functional, Homo sapiens
Parameters in all cases: dose or concentration left out as unconfirmed
Colon cancer organoid [1] = experiment: Optimized Dual-Glo assay to identify co-culture induced drug vulnerabilities using donated chemical probes and chemogenomics kinase set in O06 CRC organoid and F06 CAF mono and co-culture. […] Cell viability is reported both mono and co-culture models.
Colon cancer organoid [2] = experiment: Optimized Dual-Glo assay to identify co-culture induced drug vulnerabilities using donated chemical probes and chemogenomics kinase set in O20 CRC organoid and F20 CAF mono and co-culture. […] Cell viability is reported both mono and co-culture models.
Colon cancer organoid [3] = experiment: Optimized Dual-Glo assay to identify co-culture induced drug vulnerabilities using donated chemical probes and chemogenomics kinase set in O14 CRC organoid and F14 CAF mono and co-culture. […] Cell viability is reported both mono and co-culture models.
[4] = Culture type Co-Culture, Transduced with Lucferase2-P2A-EGFP lentivirus
[5] = Culture type Co-Culture, Transduced with Renilla-dsRed lentivirus
[6] = Culture type Mono-Culture, Transduced with Lucferase2-P2A-EGFP lentivirus
[7] = Culture type Mono-Culture, Transduced with Renilla-dsRed lentivirus

SMILES | Cell Viability (Colon cancer organoid [1]; [4]) [%] | Cell Viability (Colon cancer organoid [1]; [5]) [%] | Cell Viability (Colon cancer organoid [1]; [6]) [%] | Cell Viability (Colon cancer organoid [1]; [7]) [%] | Cell Viability (Colon cancer organoid [2]; [4]) [%] | Cell Viability (Colon cancer organoid [2]; [5]) [%] | Cell Viability (Colon cancer organoid [2]; [6]) [%] | Cell Viability (Colon cancer organoid [2]; [7]) [%] | Cell Viability (Colon cancer organoid [3]; [4]) [%] | Cell Viability (Colon cancer organoid [3]; [5]) [%] | Cell Viability (Colon cancer organoid [3]; [6]) [%] | Cell Viability (Colon cancer organoid [3]; [7]) [%]
COc1cc(OC)cc(-c2noc(N3CCN(C)C4(CCN(c5ccnc(C)c5)CC4)C3)n2)c1 | 121.179 | 136.172 | 96.7414 | 97.7605 | 136.007 | 146.282 | 103.16 | 78.5515 | 84.0267 | 119.648 | 90.6911 | 98.8129
CCc1ccccc1C(=O)Nc1n[nH]c2c(C)c(F)c(C3C(C#N)=C(C)N(C)C(C)=C3C#N)cc12 [BAY-3827] | 80.578 | 109.489 | 83.7184 | 82.828 | 74.4041 | 157.673 | 58.8443 | 110.691 | 89.6646 | 118.565 | 81.9788 | 77.2526
C[C@@H]1CN(c2cc(-c3nn(C)c4ccc(OC5(C)CC5)cc34)ncn2)C[C@H](C)O1 [MLi-2-NC] | 21.8005 | 254.626 | 83.2909 | 98.8275 | 112.711 | 86.6644 | 122.371 | 89.7102 | 118.993 | 72.3586 | 109.582 | 102.606
Cc1cc2c(-c3ccco3)cnc(N[C@H]3CCN(C)C[C@@H]3C(=O)NC3CCCCC3)c2[nH]c1=O [GSK791] | 113.813 | 153.556 | 183.923 | 92.8694 | 101.755 | 116.18 | 85.6153 | 75.9377 | 95.0265 | 100.863 | 120.55 | 112.529
Cn1c(C2(NC(=O)c3ccc4c(C5CCCC5)c(-c5ncc(Br)cn5)n(C)c4c3)CCC2)nc2ccc(/C=C/C(=O)O)cc21 [DELEOBUVIR] | 116.632 | 84.3073 | 123.499 | 101.583 | 79.9036 | 130.288 | 108.218 | 110.732 | 94.147 | 102.969 | 81.1663 | 89.5103
CCNC(=O)c1cc2c(N3CCOCC3C)ccnc2[nH]1 (stereo not drawn) | 131.632 | 146.353 | 109.161 | 91.669 | 144.452 | 100.256 | 103.659 | 101.624 | 86.1024 | 100.89 | 87.7409 | 81.9796
O=C1[C@H](Cc2ccc(O)cc2)N2C(=O)CCN(C(=O)NCc3ccccc3)[C@H]2CN1Cc1cccc2ccccc12 | 79.2211 | 124.216 | 100.059 | 61.7438 | 89.6614 | 144.616 | 131.376 | 33.7268 | 20.45 | 145.967 | 17.2238 | 77.2237
CNC(=O)c1cc(C(=O)N[C@H]2[C@@H]3COC[C@@H]32)cc2c1O[C@@H](CF)[C@@H]2c1ccccc1 [GSK943] | 83.6271 | 130.888 | 89.2117 | 119.155 | 106.252 | 108.354 | 98.6986 | 128.773 | 119.043 | 94.0726 | 104.923 | 119.987
Cc1c(C(=O)Nc2ccc(Oc3ccnc4[nH]cc(-c5ccccc5)c34)c(F)c2)c(=O)n(-c2ccc(F)cc2)n1C | 73.6786 | 56.2803 | 78.2312 | 39.3734 | 223.97 | 22.9382 | 217.145 | 43.0843 | 84.4536 | 22.1268 | 155.311 | 25.4653
